Data on five compounds can be found in patent US20050209278A1, “Piperidinyl- and piperazinyl-sulfonylmethyl hydroxamic acids and their use as protease inhibitors” (priority 2002, published 2005).

The target in one data set is T1, MMP-13 (Homo sapiens, UniProt P45452).
T1 construct: made in house; host or cells: baculovirus / insect cells
In words: MMP-13 inhibition (in vitro Ki). The data set is classed as biochemical. Conditions: Table 10; read-out: MMP-13 Ki.

The target of the next data set is T2, MMP-1 (Homo sapiens, UniProt P03956).
T2 construct: made in house; host or cells: MMP-1-transfected HT-1080 cells (spent media)
T2 sequence (P03956 100-469): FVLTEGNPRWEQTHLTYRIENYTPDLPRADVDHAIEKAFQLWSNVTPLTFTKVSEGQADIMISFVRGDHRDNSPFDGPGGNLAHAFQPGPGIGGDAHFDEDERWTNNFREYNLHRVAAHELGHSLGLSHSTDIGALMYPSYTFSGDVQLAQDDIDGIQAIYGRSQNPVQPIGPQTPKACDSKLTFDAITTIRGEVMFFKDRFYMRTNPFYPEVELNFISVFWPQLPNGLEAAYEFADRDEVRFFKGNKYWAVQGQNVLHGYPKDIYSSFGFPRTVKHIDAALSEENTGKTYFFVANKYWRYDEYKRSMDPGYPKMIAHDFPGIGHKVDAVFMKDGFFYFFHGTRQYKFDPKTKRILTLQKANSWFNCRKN
In words: MMP-1 inhibition (in vitro Ki). Conditions: Table 10; read-out: MMP-1 Ki. The data set is classed as biochemical.

A further data set has as its target T3, MMP-9 (Homo sapiens, UniProt P14780).
T3 construct: made in house; host or cells: MMP-9-transfected HT1080 cells (spent media)
As to the kind of experiment: MMP-9 inhibition (in vitro Ki). To be noted: Table 10; read-out: MMP-9 Ki. It counts as biochemical.

The target of the next data set is T4, MMP-2 (Homo sapiens, UniProt P08253).
T4 construct: made in house; host or cells: MMP-2-transfected p2AHT2 cells
T4 sequence (P08253 110-660): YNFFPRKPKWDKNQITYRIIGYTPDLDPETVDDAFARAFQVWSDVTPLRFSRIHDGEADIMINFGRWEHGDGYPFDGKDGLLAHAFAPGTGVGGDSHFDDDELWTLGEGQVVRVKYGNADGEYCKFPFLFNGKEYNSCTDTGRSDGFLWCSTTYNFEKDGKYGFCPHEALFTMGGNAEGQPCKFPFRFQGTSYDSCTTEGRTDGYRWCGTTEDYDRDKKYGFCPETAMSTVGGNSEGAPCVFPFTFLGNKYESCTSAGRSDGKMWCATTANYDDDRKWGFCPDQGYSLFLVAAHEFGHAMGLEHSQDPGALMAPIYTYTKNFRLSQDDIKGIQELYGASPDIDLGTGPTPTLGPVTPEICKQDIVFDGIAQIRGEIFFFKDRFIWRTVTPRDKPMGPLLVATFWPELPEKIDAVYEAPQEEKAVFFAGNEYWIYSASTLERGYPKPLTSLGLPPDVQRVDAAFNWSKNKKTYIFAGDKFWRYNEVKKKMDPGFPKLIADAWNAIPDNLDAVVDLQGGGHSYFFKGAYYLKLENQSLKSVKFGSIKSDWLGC
As to the kind of experiment: MMP-2 inhibition (in vitro Ki). It counts as biochemical. To be noted: Table 10; read-out: MMP-2 Ki.

Another data set addresses T5, MMP-14 (Homo sapiens, UniProt P50281).
T5 construct: The catalytic domain enzyme was expressed in E. coli inclusion bodies, solubilized in urea; made in house
In words: MMP-14 inhibition (in vitro Ki). Conditions: Table 10; read-out: MMP-14 Ki. It counts as biochemical.

Data set [1] deals with solid tumor cancers (colorectal, pancreatic, ovarian, and prostate). To be noted: cited from earlier work.

Bounds are passed on as bounds.

T3 sequence (P14780 107-707 limits assumed): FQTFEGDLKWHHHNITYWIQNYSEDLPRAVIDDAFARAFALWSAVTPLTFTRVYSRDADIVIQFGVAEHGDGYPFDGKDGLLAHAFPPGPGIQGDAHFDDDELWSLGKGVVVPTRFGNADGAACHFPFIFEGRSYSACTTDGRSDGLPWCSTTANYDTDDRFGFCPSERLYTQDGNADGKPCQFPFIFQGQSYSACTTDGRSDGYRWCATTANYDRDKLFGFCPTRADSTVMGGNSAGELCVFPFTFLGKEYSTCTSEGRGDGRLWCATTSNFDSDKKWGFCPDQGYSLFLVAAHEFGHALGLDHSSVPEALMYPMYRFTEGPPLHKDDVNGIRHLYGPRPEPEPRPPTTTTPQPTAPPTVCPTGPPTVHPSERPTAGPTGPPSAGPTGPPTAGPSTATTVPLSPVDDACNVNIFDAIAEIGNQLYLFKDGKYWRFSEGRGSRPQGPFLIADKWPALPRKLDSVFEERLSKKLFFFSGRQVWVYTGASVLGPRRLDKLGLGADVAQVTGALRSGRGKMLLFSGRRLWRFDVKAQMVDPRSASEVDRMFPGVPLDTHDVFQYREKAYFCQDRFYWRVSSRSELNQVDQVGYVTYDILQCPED

`O=C(CCCCC1CCN(S(=O)(=O)C2(C(=O)NO)CCOCC2)CC1)N1CCc2ccccc21` [Example B1, (4-({4-[5-(2,3-dihydro-1H-indol-1-yl)-5-oxopentyl]piperidin-1-yl}sulfonyl)-N-hydroxytetrahydro-2H-pyran-4-carboxamide)]: the Ki is 0.229 nM at MMP-13; 482 nM on MMP-1; 380 nM on MMP-9; 30.7 nM at MMP-2; more than 10000 nM on MMP-14.
On to `CCC(CC)(C(=O)NO)S(=O)(=O)N1CCC(Oc2ccc(SC(F)(F)F)cc2)CC1` [Example B2, 2-ethyl-N-hydroxy-2-[(4-{4-[(trifluoromethyl)thio]phenoxy}piperidin-1-yl)sulfonyl]butanamide], for which the Ki was determined as 1.07 nM on MMP-13; 2910 nM at MMP-1; 0.483 nM on MMP-9; 1.21 nM at MMP-2; 1540 nM on MMP-14.
Consider `COCCC(C(=O)NO)S(=O)(=O)N1CCC(Oc2ccc(SC(F)(F)F)cc2)CC1` (stereo not shown) [Example B3, N-hydroxy-4-methoxy-2-[(4-{4-[(trifluoromethyl)thio]phenoxy}piperidin-1-yl)sulfonyl]butanamide], for which the Ki on MMP-13 was 0.985 nM; at MMP-1 it was more than 10000 nM; on MMP-9, 0.332 nM; at MMP-2, 0.791 nM; at MMP-14 it was 1950 nM.
`COCCC(CCOC)(C(=O)NO)S(=O)(=O)N1CCC(Oc2ccc(SC(F)(F)F)cc2)CC1` [Example B4, N-hydroxy-4-methoxy-2-(2-methoxyethyl)-2-[(4-{4-[(trifluoromethyl)thio]phenoxy}piperidin-1-yl)sulfonyl]butanamide]: the Ki on MMP-13 came out at 0.45 nM; at MMP-1, 2060 nM; on MMP-9, 0.181 nM; at MMP-2, 0.654 nM; on MMP-14, 1640 nM.
Consider `CNC(=O)[C@@H](NC(=O)[C@H](CC(C)C)[C@H](O)C(=O)NO)C(C)(C)C` [Marimastat], for which the “most common drug-related toxicity” value in data set [1] (clinical trials in patients) is “musculoskeletal pain and stiffness”. Further, the “effect on cancer-specific antigens used as surrogate markers for biological activity” value in data set [1] (patients with advanced, rapidly progressive, treatment-refractory solid tumor cancers) was “dose-related reduction in the rise of cancer-specific antigens”.

A word on the Ki: it is the equilibrium dissociation constant of an inhibitor or competing ligand from its target.
